Target: T1, h5-HT3AR (Homo sapiens, UniProt P46098, M223I)
T1 sequence (P46098 24-478 M223I): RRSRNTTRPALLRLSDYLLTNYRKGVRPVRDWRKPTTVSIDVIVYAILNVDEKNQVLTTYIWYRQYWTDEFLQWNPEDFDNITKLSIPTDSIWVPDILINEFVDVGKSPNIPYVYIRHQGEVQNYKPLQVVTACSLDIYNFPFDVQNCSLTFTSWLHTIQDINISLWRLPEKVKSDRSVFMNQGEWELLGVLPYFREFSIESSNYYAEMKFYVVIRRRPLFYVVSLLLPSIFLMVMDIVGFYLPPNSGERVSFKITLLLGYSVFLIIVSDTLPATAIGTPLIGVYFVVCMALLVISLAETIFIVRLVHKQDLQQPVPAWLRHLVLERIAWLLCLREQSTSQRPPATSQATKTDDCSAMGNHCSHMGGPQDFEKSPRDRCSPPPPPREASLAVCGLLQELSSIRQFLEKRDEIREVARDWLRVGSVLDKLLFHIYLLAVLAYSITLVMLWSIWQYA
Test: FLIPR Blue membrane potential assay, inhibition of 5-HT response
Format: cell-based

- IC50: 20 nM
SMILES: Cc1ccc(Sc2ccccc2N2CCNCC2)c(C)c1 [vortioxetine]

From paper doi:10.1101/2024.02.23.581731v1 (biorxiv, 2024)
